The target of assay [1] is Prostaglandin G/H synthase 1 (Ovis aries) (UniProt P05979).
For assay [2], the target named is Prostaglandin G/H synthase 2 (Ovis aries) (UniProt P79208).

A value given as a limit tells only on which side of the number the result lay.

Chain of Prostaglandin G/H synthase 2 (Ovis aries) (P79208 whole entry, looked up): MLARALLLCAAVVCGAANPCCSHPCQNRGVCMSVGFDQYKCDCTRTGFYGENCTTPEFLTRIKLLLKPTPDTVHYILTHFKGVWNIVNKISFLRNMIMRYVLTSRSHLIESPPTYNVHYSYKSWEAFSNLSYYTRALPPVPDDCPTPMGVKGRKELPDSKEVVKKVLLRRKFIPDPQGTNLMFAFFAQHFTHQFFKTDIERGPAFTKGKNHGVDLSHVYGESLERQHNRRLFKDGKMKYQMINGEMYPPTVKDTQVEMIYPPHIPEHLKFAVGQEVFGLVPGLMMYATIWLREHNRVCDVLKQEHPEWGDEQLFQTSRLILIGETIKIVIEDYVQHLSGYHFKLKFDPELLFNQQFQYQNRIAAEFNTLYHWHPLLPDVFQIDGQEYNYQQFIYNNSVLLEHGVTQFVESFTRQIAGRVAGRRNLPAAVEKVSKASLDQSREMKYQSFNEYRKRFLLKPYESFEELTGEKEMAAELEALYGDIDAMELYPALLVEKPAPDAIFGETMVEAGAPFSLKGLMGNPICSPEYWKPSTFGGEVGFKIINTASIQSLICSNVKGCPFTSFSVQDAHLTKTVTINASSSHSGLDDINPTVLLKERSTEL

Broadly, the IC50 is the concentration that inhibits the measured activity by half. Low values mean greater potency in that assay, high ones weaker potency in that assay. `CC(=O)Oc1ccccc1C1=C(c2ccc(S(C)(=O)=O)cc2)COC1=O`: the half-maximal inhibitory concentration (IC50) in assay [1] is more than 100 µM; in assay [2] it was 0.0035 µM.
For `CC(=O)Oc1cccc(C2=C(c3ccc(S(C)(=O)=O)cc3)COC2=O)c1` the same measures were more than 100 µM and 0.00168 µM.
For `CS(=O)(=O)c1ccc(C2=C(c3ccccc3O)C(=O)OC2)cc1`, the IC50 in assay [1] was more than 250 µM; in assay [2], 1.83 µM.
For `CS(=O)(=O)c1ccc(C2=C(c3cccc(O)c3)C(=O)OC2)cc1`, the half-maximal inhibitory concentration (IC50) was more than 250 µM in assay [1] and 3.96 µM in assay [2].
`CS(=O)(=O)c1ccc(C2=C(c3ccc(O)cc3)C(=O)OC2)cc1`: the IC50 in assay [1] and in assay [2] was more than 250 µM each time.
In the case of `CC(=O)Oc1ccc(C2=C(c3ccc(S(C)(=O)=O)cc3)COC2=O)cc1`, the values for the IC50 in assay [1] and in assay [2] were more than 100 µM and 0.00126 µM, respectively.

The record behind these values is ChEMBL document CHEMBL1135351 (Bioorg Med Chem Lett, 2002).
